Consider 22 compounds from patent publication US10028942B2 (priority 2013, dated 2018).

The target of this assay is T1, DLK (Homo sapiens, UniProt Q12852).
T1 sequence (Q12852 1-520): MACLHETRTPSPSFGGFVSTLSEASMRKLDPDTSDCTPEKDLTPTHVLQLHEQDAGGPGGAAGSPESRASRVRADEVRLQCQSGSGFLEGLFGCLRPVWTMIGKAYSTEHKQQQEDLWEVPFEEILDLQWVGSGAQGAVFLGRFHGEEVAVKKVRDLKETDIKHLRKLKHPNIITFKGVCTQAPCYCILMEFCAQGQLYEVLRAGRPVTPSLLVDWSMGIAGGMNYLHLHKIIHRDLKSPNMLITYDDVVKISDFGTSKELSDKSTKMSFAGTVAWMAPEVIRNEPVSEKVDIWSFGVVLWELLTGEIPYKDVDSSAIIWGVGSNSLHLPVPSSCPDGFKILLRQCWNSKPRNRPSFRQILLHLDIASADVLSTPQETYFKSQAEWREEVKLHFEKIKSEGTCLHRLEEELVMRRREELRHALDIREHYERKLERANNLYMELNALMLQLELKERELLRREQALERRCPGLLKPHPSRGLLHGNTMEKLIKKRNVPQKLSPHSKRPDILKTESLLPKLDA
The note with it: read-out: DLK (Ki) μM; TR-FRET; 5 nM GST-tagged DLK (catalytic domain aa 1-520), 40 nM HIS-MKK4 K131M substrate, 30 μM ATP, 60 minutes. Background: In TR-FRET formats the signal depends on donor and acceptor labels being close together.
`CC(=O)N1CCC(c2cc(-c3cnc4[nH]cc(C(F)(F)F)c4c3)nn2C(C)C)CC1` [Compound 50, 1-(4-(1-isopropyl-3-(3-(trifluorometh-yl)-1H-pyrrolo[2,3-b]pyridin-5-yl)-1H-pyrazol-5-yl)piperidin-1-yl)etha-none]: the Ki was 0.0037 µM.
Next, `Nc1ncc(-c2cc([C@H]3[C@@H]4CN(C5COC5)C[C@@H]43)n(CC(F)(F)F)n2)cc1C(F)(F)F` [Compound 174, 5-(5-((1R,5S,6r)-3-(oxetan-3-yl)-3-azabicyclo[3.1.0]hexan-6-yl)-1-(2,2,2-trifluoroethyl)-1H-pyrazol-3-yl)-3-(trifluoromethyl)pyridin-2-amine]: 0.0016 µM; `Cc1c[nH]c2ncc(-c3cc(C4CCN(C5COC5)C4)n(C)n3)cc12` (stereo not shown) [Compound 63, 3-methyl-5-(1-methyl-5-(1-(oxetan-3-yl)pyrrolidin-3-yl)-1H-pyrazol-3-yl)-1H-pyrrolo[2,3-b]pyridine]: 0.034 µM.
As to `CC(=O)N1CC(c2cc(-c3cnc4[nH]cc(C(F)(F)F)c4c3)nn2C)C1` [Compound 11, 1-(3-(1-methyl-3-(3-(trifluoromethyl)-1H-pyrrolo[2,3-b]pyridin-5-yl)-1H-pyrazol-5-yl)azetidin-1-yl)ethanone], the Ki came out at 0.034 µM.
With `Nc1ncc(-c2cc(C3CCOC3)n(C3CC(F)(F)C3)n2)cc1Cl` (stereo not shown) [Compound 25, 3-chloro-5-(1-(3,3-difluorocyclobut-yl)-5-(tetrahydrofuran-3-yl)-1H-pyra-zol-3-yl)pyridin-2-amine], the inhibitory constant (Ki) stood at 0.55 µM.
Next, `CC(C)n1nc(-c2cnc(N)c(C(F)(F)F)c2)cc1[C@H]1[C@@H]2CN(CCC#N)C[C@@H]21` [Compound 127, 3-((1R,5S,6r)-6-(3-(6-amino-5-(trifluoro-methyl)pyridin-3-yl)-1-isopropyl-1H-pyrazol-5-yl)-3-azabicyclo[3.1.0]hexan-3-yl)propanenitrile]: 0.0059 µM.
The same measure for `CS(=O)(=O)c1cc(-c2cc([C@H]3[C@@H]4CN(C5COC5)C[C@@H]43)n(C3CCCC3)n2)cnc1N` [Compound 155, 5-(1-cyclopentyl-5-((1R,5S,6r)-3-(oxe-tan-3-yl)-3-azabicyclo[3.1.0]hexan-6-yl)-1H-pyrazol-3-yl)-3-(methyl-sulfonyl)pyridin-2-amine]: 0.3 µM; for `Nc1ncc(-c2cc([C@H]3[C@@H]4CN(C5COC5)C[C@@H]43)n(C3CCCC3)n2)cc1C(F)F` [Compound 171, 5-(1-cyclopentyl-5-((1R,5S,6r)-3-(oxe-tan-3-yl)-3-azabicyclo[3.1.0]hexan-6-yl)-1H-pyrazol-3-yl)-3-(difluoro-methyl)pyridin-2-amine]: 0.016 µM.
Consider `COCCN1C[C@@H]2[C@H](C1)[C@H]2c1cc(-c2cnc(N)c(C(F)(F)F)c2)nn1CC1CC1` [Compound 122, 5-(1-(cyclopropylmethyl)-5-((1R,5S, 6r)-3-(2-methoxyethyl)-3-azabicyclo [3.1.0]hexan-6-yl)-1H-pyrazol-3-yl)-3-(trifluoromethyl)pyridin-2-amine], for which the Ki was determined as 0.0079 µM.
As to `CC(=O)N1CC(c2cc(-c3cnc4[nH]cc(C)c4c3)nn2CC2CC2)C1` [Compound 9, 1-(3-(1-(cyclopropylmethyl)-3-(3-meth-yl-1H-pyrrolo[2,3-b]pyridin-5-yl)-1H-pyrazol-5-yl)azetidin-1-yl)ethan-one], the inhibition constant Ki was found to be 0.076 µM.
With `N#Cc1cc(-c2cc(C3CCN(C4COC4)CC3)n(C3CCCC3)n2)cnc1N` [Compound 93, 2-amino-5-(1-cyclopentyl-5-(1-(oxetan-an-3-yl)piperidin-4-yl)-1H-pyrazol-3-yl)nicotinonitrile], the Ki worked out at 0.17 µM.
Regarding `CC(C)n1nc(-c2cnc3c(c2)C(C)(C)CN3)cc1C1CCN(C2COC2)CC1` [Compound 95, 5-(1-isopropyl-5-(1-(oxetan-3-yl)piperidin-4-yl)-1H-pyrazol-3-yl)-3,3-dimethyl-2,3-dihydro-1H-pyrrolo[2,3-b]pyridine], the Ki amounted to 1.2 µM.
`CC(=O)N1CCC(c2cc(-c3cnc4[nH]cc(C)c4c3)nn2C)CC1` [Compound 47, 1-(4-(1-methyl-3-(3-methyl-1H-pyrro-lo[2,3-b]pyridin-5-yl)-1H-pyrazol-5-yl)piperidin-1-yl)ethanone]: the Ki worked out at 0.047 µM.
Consider `CC(C)n1nc(-c2cnc(N)c(Cl)c2)cc1[C@H]1[C@@H]2CN(C3COC3)C[C@@H]21` [Compound 140, 3-chloro-5-(1-isopropyl-5-((1R,5S,6r)-3-(oxetan-3-yl)-3-azabicyclo[3.1.0]hexan-6-yl)-1H-pyrazol-3-yl)pyridin-2-amine], for which the Ki is 0.04 µM.
The same measure for `FC1(F)CCC(n2nc(-c3cnc4[nH]cc(C(F)(F)F)c4c3)cc2C2CN(C3COC3)C2)C1` (stereo not shown) [Compound 56, 5-(1-(3,3-difluorocyclopentyl)-5-(1-(oxetan-3-yl)azetidin-3-yl)-1H-pyrazol-3-yl)-3-(trifluoromethyl)-1H-pyrrolo[2,3-b]pyridine]: 0.013 µM; for `COCCN1C[C@@H]2[C@H](C1)[C@H]2c1cc(-c2cnc(N)c(Cl)c2)nn1CC1CC1(F)F` (stereo partly drawn) [Compound 121, 3-chloro-5-(1-((2,2-difluorocyclopro-pyl)methyl)-5-((1R,5S,6r)-3-(2-meth-oxyethyl)-3-azabicyclo[3.1.0]hexan-6-yl)-1H-pyrazol-3-yl)pyridin-2-amine]: 0.09 µM.
`FC(F)(F)c1c[nH]c2ncc(-c3cc(C4CCOC4)n(C4CCOC4)n3)cc12` (stereo not shown) [Compound 15, 5-(1,5-bis(tetrahydrofuran-3-yl)-1H-pyrazol-3-yl)-3-(trifluoromethyl)-1H-pyrrolo[2,3-b]pyridine]: the Ki was determined as 0.035 µM.
As to `CC(C)n1nc(-c2cnc(N)c(C(F)(F)F)c2)cc1[C@H]1[C@@H]2CN(CC(C)(C)O)C[C@@H]21` [Compound 128, 1-((1R,5S,6r)-6-(3-(6-amino-5-(trifluoro-methyl)pyridin-3-yl)-1-isopropyl-1H-pyrazol-5-yl)-3-azabicyclo[3.1.0]hexan-3-yl)-2-methylpropan-2-ol], the inhibition constant Ki stood at 0.011 µM.
Take `CC(C)n1nc(-c2cnc(N)c(C(F)(F)F)c2)cc1C1CCN(C2COC2)CC1` [Compound 76, 5-(1-isopropyl-5-(1-(oxetan-3-yl)piperidin-4-yl)-1H-pyrazol-3-yl)-3-(trifluoromethyl)pyridin-2-amine]: the Ki was determined as 0.15 µM.
The same measure for `COCCN1C[C@@H]2[C@H](C1)[C@H]2c1cc(-c2cnc(N)c(C(F)(F)F)c2)nn1C(C)C` [Compound 117, 5-(1-isopropyl-5-((1R,5 S,6r)-3-(2-methoxyethyl)-3-azabicyclo[3.1.0]hexan-6-yl)-1H-pyrazol-3-yl)-3-(trifluoromethyl)pyridin-2-amine]: 0.0094 µM; for `Nc1ncc(-c2cc([C@H]3[C@@H]4CN(C5COC5)C[C@@H]43)n(CC3CC3)n2)cc1C(F)F` [Compound 169, 5-(1-(cyclopropylmethyl)-5-((1R,5S,6r)-3-(oxetan-3-yl)-3-azabicyclo[3.1.0]hexan-6-yl)-1H-pyrazol-3-yl)-3-(di-fluoromethyl)pyridin-2-amine]: 0.041 µM.
As for `CN1CCC(c2cc(-c3cnc4[nH]cc(C(F)(F)F)c4c3)nn2C2CC(F)(F)C2)CC1=O` (stereo not shown) [Compound 45, 4-(1-(3,3-difluorocyclobutyl)-3-(3-(tri-fluoromethyl)-1H-pyrrolo[2,3-b]pyri-din-5-yl)-1H-pyrazol-5-yl)-1-meth-ylpiperidin-2-one], the Ki came to 0.14 µM.

As usually defined, the Ki is a measure of affinity in units of concentration, obtained from inhibition or displacement.
